For one test, the target named is T1, Jak1 (Homo sapiens, UniProt P23458).
T1 construct: endogenous in cells; host or cells: TF1 cells
The experiment in a line: Jak1 (PSTAT3 TF1) alpha screen assay: inhibition of IL-6 induced phosphorylation of STAT3 in TF1 cells. It is filed as cell-based. The note with it: calculated from tabulated EC50 data (Jak1 / Tyk2). The procedure: 2. JAK1 (PSTAT3 TF1) ALPHA SCREEN ASSAY
IL-6 is known to transduce its signal through IL-6 receptor via Jak1. Activity against Jak1 was therefore measured by determining inhibition of IL-6 induced phosphorylation of STAT3 in TF1 cells.
Cell Type: TF1 Cells; Culture Medium: RPMI 1640 Medium, 2mM L-glutamine, 10% heat- inactivated fetal bovine serum (FBS), 10 mM hydroxyethyl piperazineethanesulfonic acid (HEPES), and 2 ng/mL recombinant human interleukin-6(IL-6); Assay Medium: Dulbecco's Modified Eagle Medium (DMEM) medium with 2 mM L-glutamine, 10 mM HEPES, 100 U/mL penicillin/streptomycin, 1.5 g/L sodium bicarbonate, 4.5 g/L glucose, 1 mM sodium pyruvate, 10% heat-inactivated FBS; Compound Preparation: Compounds are dissolved in 100% dimethyl sulfoxide (DMSO).
Day One—Starve Cells: 4 Flasks for one 384 plate (spin down @1000 rpm for 10 minutes and add RPMI 1640 Medium, 2 mM L-glutamine, 10% FBS, 10 mM HEPES with no IL-6 -incubate overnight).
(§1) Day Two—Compound Dilutions:
i. Manual 8-point 1:5 dilution curve: 5 mM top concentration dispensed in row A of a
Corning 96-well polypropylene plate, columns 2-12. DMSO dispensed in position A01 for low and high controls. Compounds were serially diluted 1:5 by adding 10 μL stock to […] DMSO down the plate.
ii. Media dilution of compounds: Serially diluted compounds were further diluted 1:12.5 in assay medium by adding 4 μL compound to 46 μL assay medium in a Corning 96-well polypropylene plate.
384 Alpha Screen Plate Set up: Transfer 2.5 μL/well of compound solution from assay media dilution plate. Replicates were vertical, one column of the 96-well dilution plate goes into one column on the 384-well plate twice. Plated 1×10^5 starved cells/well in 5 μL. Washed cells in 10 mL DMEM medium after spinning down. Brought cell pellet up in assay media. Counted live cells. Multiplied by dilution factor and 10,000 (constant) to get the concentration of viable cells. Multiplied by volume of assay media used to bring up cells to get the total number of live cells. Divided by 20,000,000 cells/mL to get the volume needed. Cells were plated at 5 μL/well in gray Alpha Screen 384-well plate. Spinned the plate to bring the contents to the bottom of the wells at 300 rpm for 60 seconds. Top final compound concentration: 25 μM. Sealed with adhesive and tapped gently. Incubated plate at 37° C. for 30 minutes. c. IL-6 Stimulation (pSTAT3)
Once cells were in incubator, immediately prepared working stock of IL-6 (100 ng/mL final concentration). IL-6 stock=10 μg/mL of IL-6 in phosphate buffered saline with 0.1% bovine serum albumin. Diluted 1:25 by adding 60 μL stock IL-6 to 1440 μL assay media. Added 2.5 μL IL-6 to each well. Spinned plate at 300 rpm briefly; tapped the plate gently before covering with an adhesive seal. Incubated plate at 37° C. for 30 minutes.
Added 2.5 μL of 5X Lysis buffer to each well. Incubated at room temperature on orbital shaker for 10 minutes.
e. Protein (A) Acceptor Beads Preparation:
Phosphorylated Signal Transducer and Activator of Transcription 3 (pSTAT3) was quantified using the PerkinElmer SureFire pSTAT3 (Tyrosine 705) Assay. Calculated total volume needed (wells×[…]×25%). Divided total volume by 5 to get volume of activation buffer. Subtracted volume of activation buffer from total volume and divide by 40 to get volume of acceptor beads (add last). Total volume−acceptor bead volume−activation buffer=volume of reaction buffer. Added 15 μL to each well and covered with foil. Shaked on orbital shaker for 2 hours at 500 rpm.
(§2) f. Streptavidin Donor Beads Preparation:
Calculated total volume needed (wells×[…]×25%). Divided total volume by 20 to get volume of donor beads (add last). Subtracted volume of donor beads from total volume to get volume of dilution buffer. Added 6 μL to each well and covered with foil. Shaked on orbital shaker overnight at 500 rpm.
Read plate on a Perkin Elmer Envision. […]

The next test deals with T2, Jak2 (Homo sapiens, UniProt O60674).
T2 construct: Cell Type: UT7 cells engineered to express the erythropoietin (EPO) receptor; endogenous in cells; host or cells: UT7 cells engineered to express the EPO receptor
The experiment in a line: Jak2 (PSTATS UT7) alpha screen assay: inhibition of EPO induced phosphorylation of STAT5 in UT7 cells. The note with it: calculated from tabulated EC50 data (Jak2 / Tyk2). It is filed as cell-based. The procedure: 3. JAK2 (PSTATS UT7) ALPHA SCREEN ASSAY
Erythropoietin (EPO) is known to transduce its signal through EPO receptor via Jak2. Activity against Jak2 was therefore measured by determining inhibition of EPO induced phosphorylation of STATS in UT7 cells. […] Materials
Cell Type: UT7 cells engineered to express the erythropoietin (EPO) receptor; Culture Medium: Dulbecco's Modified Eagle Medium (DMEM) with 2 mM L-glutamine, 10 mM hydroxyethyl piperazineethanesulfonic acid (HEPES), 10% heat-inactivated fetal bovine serum (FBS) and Stock EPO (5000U in 250 uL, need 5U/mL, so add 250 μL to 1L of media); Assay Medium: 5% FBS ultra-low IgG and 1% Pen/Strep. Compounds were made-up in 100% dimethyl sulfoxide (DMSO).
Day One - Starve Cells: 4 Flasks for one 384 plate (spin down @1000 rpm for 10 minutes and add DMEM with no EPO).
as §1
i. Manual 8-point 1:3 dilution curve: 5 mM top concentration dispensed in row A of a
Corning 96-well polypropylene plate, columns 2-12. DMSO dispensed in position A01 for low and high controls. Compounds were serially diluted 1:3 by adding 10 μL stock to 20 μL DMSO down the plate.
ii. Media dilution of compounds: Serially diluted compounds were diluted 1:50 in assay medium by adding 4 μL compound to 196 μL assay medium in a Corning 96-well polypropylene plate.
384 Alpha Screen Plate Set up: Transferred 2.5 μL/well of compound solution from last dilution plate. Replicates were vertical, so that one column of the 96-well dilution plate goes into one column on the 384-well plate twice. Plated 1×10^5 starved cells/well in 5μL. Washed cells in 10 mL Hank's balanced salt solution (HBSS) after spinning down. Counted live cells. Multiplied by dilution factor and 10,000 (constant) to get the concentration of viable cells. Multiplied by volume of cells to get the total number of live cells. Divided by 20,000,000 cells/mL to get the volume needed. Subtracted the original volume to get the volume to be added to get the final concentration of cells. Mixed in reservoir if needed, ensuring that all cell clumps are broken up (if not broken up, they were removed from the suspension). Cells were plated at 5 μL/well in gray Alpha Screen 384-well plate. Spinned the plate to bring the contents to the bottom of the wells at 400 rpm for 2 minutes. Top final compound concentration: 25 μM. Sealed with adhesive and tapped gently. Incubated cells at 37° C. for 30 minutes.
c. EPO Stimulation (p STATS)
Once cells were in incubator, immediately prepared working stock of EPO (1 nM final assay concentration). EPO stock=2860 nM of sterile filtered liquid in sodium citrate buffer (1 liter of ddH2O containing 5.9 g of sodium citrate, 5.8 g of sodium chloride and 0.06 g of citric acid). Diluted 1:22.72 by adding 4.44 stock EPO to 95.6 pi assay media, then dilute again […] depending on how much volume is needed for the assay plates. Used assay medium to bring to volume. Added 2.5 μL EPO to each well. Spinned plate at 400 rpm briefly; tap the plate gently before covering with an adhesive seal. Cells were incubated at 37° C. for 20 minutes.
Added 2.5 μL of 5X Lysis buffer to each well. Spinned plate at 400 rpm briefly. Incubated at room temperature (on orbital shaker) for 10 minutes.
e. Protein (A) Acceptor Beads Preparation: (Light sensitive)
Phosphorylated Signal Transducer and Activator of Transcription 5 (pSTAT5) was quantified using the PerkinElmer SureFire pSTATS (Tyrosine 694/699) Assay. Calculated total volume needed (wells×15 μL×30%). Divided total volume by 5 to get volume of activation buffer. Subtracted volume of activation buffer from total volume and divide by 40 to get volume of acceptor beads (add last). Total volume - acceptor bead volume - activation buffer to get volume of reaction buffer. Added 15 μL to each well and covered with foil. Shaked on orbital shaker for 2 hours at 500 rpm.
as §2
Calculated total volume needed (wells×6μL×30%). […]

The values that follow come from patent US10508113B2, “Inhibitors of tyrosine kinase 2 mediated signaling” (AbbVie Inc., priority 2018, dated 2019).

T1 sequence (P23458 whole entry): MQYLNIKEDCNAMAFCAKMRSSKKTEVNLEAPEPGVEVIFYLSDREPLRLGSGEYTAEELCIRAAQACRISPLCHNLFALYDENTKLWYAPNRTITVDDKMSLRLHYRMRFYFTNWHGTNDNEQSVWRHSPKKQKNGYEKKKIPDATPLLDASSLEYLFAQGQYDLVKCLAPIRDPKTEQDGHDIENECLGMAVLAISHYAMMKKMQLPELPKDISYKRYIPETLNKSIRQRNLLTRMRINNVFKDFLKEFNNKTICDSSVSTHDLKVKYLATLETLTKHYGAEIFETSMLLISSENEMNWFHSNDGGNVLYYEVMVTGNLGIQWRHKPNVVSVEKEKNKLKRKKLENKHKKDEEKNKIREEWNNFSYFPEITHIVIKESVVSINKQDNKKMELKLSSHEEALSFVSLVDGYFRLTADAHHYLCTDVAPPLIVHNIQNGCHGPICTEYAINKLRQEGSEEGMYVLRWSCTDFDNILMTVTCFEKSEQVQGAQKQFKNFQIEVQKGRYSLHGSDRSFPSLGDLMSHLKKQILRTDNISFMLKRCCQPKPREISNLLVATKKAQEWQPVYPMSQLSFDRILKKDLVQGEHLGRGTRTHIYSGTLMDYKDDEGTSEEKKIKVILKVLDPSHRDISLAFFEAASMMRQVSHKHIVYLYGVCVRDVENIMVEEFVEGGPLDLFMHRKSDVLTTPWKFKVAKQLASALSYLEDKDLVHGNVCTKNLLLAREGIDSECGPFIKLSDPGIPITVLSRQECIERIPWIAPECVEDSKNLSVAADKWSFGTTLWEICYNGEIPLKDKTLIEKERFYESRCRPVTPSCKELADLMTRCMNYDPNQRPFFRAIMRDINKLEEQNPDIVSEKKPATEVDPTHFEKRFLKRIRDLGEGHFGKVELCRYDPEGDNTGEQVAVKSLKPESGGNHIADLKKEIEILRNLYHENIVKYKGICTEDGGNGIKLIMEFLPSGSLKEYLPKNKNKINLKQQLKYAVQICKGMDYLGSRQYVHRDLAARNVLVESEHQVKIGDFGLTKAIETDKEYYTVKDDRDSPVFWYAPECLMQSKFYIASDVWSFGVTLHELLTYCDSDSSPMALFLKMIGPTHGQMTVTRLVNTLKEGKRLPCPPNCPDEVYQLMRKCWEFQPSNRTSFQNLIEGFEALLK
T2 sequence (O60674 whole entry): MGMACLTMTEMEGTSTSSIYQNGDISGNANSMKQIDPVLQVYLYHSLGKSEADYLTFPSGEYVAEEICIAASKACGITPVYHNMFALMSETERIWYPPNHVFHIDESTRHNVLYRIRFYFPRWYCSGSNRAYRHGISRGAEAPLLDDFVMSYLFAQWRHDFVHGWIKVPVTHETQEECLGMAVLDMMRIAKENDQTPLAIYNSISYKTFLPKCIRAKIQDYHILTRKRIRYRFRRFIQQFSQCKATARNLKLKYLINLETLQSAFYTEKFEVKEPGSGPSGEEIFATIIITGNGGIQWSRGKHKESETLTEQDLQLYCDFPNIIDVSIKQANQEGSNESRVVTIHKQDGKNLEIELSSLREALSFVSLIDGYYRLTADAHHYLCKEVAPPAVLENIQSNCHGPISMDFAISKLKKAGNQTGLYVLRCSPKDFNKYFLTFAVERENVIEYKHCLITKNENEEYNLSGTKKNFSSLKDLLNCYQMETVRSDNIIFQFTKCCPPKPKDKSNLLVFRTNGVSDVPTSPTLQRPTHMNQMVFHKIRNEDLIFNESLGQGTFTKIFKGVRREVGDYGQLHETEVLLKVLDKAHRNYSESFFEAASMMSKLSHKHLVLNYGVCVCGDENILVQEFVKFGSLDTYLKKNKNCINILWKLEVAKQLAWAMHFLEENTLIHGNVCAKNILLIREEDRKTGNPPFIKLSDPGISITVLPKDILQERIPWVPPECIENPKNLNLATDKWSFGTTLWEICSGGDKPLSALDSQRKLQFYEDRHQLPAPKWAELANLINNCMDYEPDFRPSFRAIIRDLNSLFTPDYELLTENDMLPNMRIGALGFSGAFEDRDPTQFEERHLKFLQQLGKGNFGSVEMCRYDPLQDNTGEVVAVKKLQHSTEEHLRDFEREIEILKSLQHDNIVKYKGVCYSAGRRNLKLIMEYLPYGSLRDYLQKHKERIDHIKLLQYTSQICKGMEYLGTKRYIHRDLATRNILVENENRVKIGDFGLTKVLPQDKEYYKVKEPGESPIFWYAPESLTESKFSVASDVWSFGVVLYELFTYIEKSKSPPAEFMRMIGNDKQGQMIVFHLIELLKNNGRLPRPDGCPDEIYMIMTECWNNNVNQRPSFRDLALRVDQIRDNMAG

For `COCc1cc(-c2cn(C)c3cnc(NC(N)=O)cc23)nc([C@]2(OC)CCOC2)c1` [Example 3, (R)-1-(3-(4-(Methoxymethyl)-6-(3-methoxytetrahydrofuran-3-yl)pyridin-2-yl)-1-methyl-1H-pyrrolo[2,3-c]pyridin-5-yl)urea], the “Tyk2 selectivity over Jak1” value on Jak1 was 514-fold. The “Tyk2 selectivity over Jak2” value at Jak2 is recorded as >714-fold.

With `CC[C@@]1(c2cccc(-c3cn(C)c4cnc(NC(N)=O)cc34)n2)CCOC1` [Example 3.2, (S)-1-(3-(6-(3-ethyltetrahydrofuran-3-yl)pyridin-2-yl)-1-methyl-1H-pyrrolo[2,3-c]pyridin-5-yl)urea], the “Tyk2 selectivity over Jak1” value on Jak1 is reported as 243-fold. Also, the “Tyk2 selectivity over Jak2” value at Jak2 was >1786-fold.

Consider `COCc1cc(-c2cn(C3COC3)c3cnc(NC(C)=O)cc23)nc([C@]2(OC)CCOC2)c1` [Example 4, (R)-N-(3-(4-(methoxymethyl)-6-(3-methoxytetrahydrofuran-3-yl)pyridin-2-yl)-1-(oxetan-3-yl)-1H-pyrrolo[2,3-c]pyridin-5-yl)acetamide], for which the “Tyk2 selectivity over Jak1” value at Jak1 was >730-fold. In addition, the “Tyk2 selectivity over Jak2” value at Jak2 is >182-fold.

With `CO[C@@]1(c2cc(C(F)F)cc(-c3cn(C4COC4)c4cnc(NC(C)=O)cc34)n2)CCOC1` [Example 4.3, (R)-N-(3-(4-(difluoromethyl)-6-(3-methoxytetrahydrofuran-3-yl)pyridin-2-yl)-1-(oxetan-3-yl)-1H-pyrrolo[2,3-c]pyridin-5-yl)acetamide], the “Tyk2 selectivity over Jak1” value at Jak1 is reported as 310-fold. Further, the “Tyk2 selectivity over Jak2” value on Jak2 is on record as >144-fold.

With `CO[C@@]1(c2cc(OCC3COC3)cc(-c3cn(C)c4cnc(NC(C)=O)cc34)n2)CCOC1` [Example 6, (R)-N-(3-(6-(3-Methoxytetrahydrofuran-3-yl)-4-(oxetan-3-ylmethoxy)pyridin-2-yl)-1-methyl-1H-pyrrolo[2,3-c]pyridin-5-yl)acetamide], the “Tyk2 selectivity over Jak1” value at Jak1 is 420-fold. On Jak2, the “Tyk2 selectivity over Jak2” value is given as >500-fold.

For the compound `CO[C@@]1(c2cc(OCC[C@@H](C)O)cc(-c3cn(C)c4cnc(NC(C)=O)cc34)n2)CCOC1` [Example 7], the “Tyk2 selectivity over Jak1” value on Jak1 is listed as 39-fold. For the same compound, the “Tyk2 selectivity over Jak2” value on Jak2 was >28-fold.

As to `CO[C@@]1(c2cc(OCC[C@H](C)O)cc(-c3cn(C)c4cnc(NC(C)=O)cc34)n2)CCOC1` [Example 9, N-(3-(4-((S)-3-Hydroxybutoxy)-6-((R)-3-methoxytetrahydrofuran-3-yl)pyridin-2-yl)-1-methyl-1H-pyrrolo[2,3-c]pyridin-5-yl)acetamide], the “Tyk2 selectivity over Jak1” value at Jak1 is listed as 494-fold. Moreover, the “Tyk2 selectivity over Jak2” value at Jak2 is >294-fold.

As for `CO[C@@]1(c2cc(OCCO)cc(-c3cn(C)c4cnc(NC(C)=O)cc34)n2)CCOC1` [Example 10, (R)-N-(3-(4-(2-Hydroxyethoxy)-6-(3-methoxytetrahydrofuran-3-yl)pyridin-2-yl)-1-methyl-1H-pyrrolo[2,3-c]pyridin-5)-ypacetamide], at Jak1, the “Tyk2 selectivity over Jak1” value is given as 297-fold. Further, the “Tyk2 selectivity over Jak2” value on Jak2 is reported as >275-fold.

Take `CO[C@@]1(c2cc(O[C@H]3C[C@H](O)C3)cc(-c3cn(C)c4cnc(NC(C)=O)cc34)n2)CCOC1` [Example 11, N-(3-(4-((trans)-3-Hydroxycyclobutoxy)-6-((R)-3-methoxytetrahydrofuran-3-yl)pyridin-2-yl)-1-methyl-1H-pyrrolo[2,3-c]pyridin-5-yl)acetamide]: on Jak1, the “Tyk2 selectivity over Jak1” value is listed as 442-fold. On Jak2, the “Tyk2 selectivity over Jak2” value is given as >481-fold.

As to `CO[C@@]1(c2cncc(-c3cn(C)c4cnc(NC(N)=O)cc34)n2)CCOC1` [Example 12, (R)-1-(3-(6-(3-Methoxytetrahydrofuran-3-yl)pyrazin-2-yl)-1-methyl-1H-pyrrolo[2,3-c]pyridin-5-yl)urea], the “Tyk2 selectivity over Jak1” value on Jak1 is reported as 66-fold. Moreover, the “Tyk2 selectivity over Jak2” value at Jak2 was >102-fold.

Regarding `CO[C@@]1(c2cc(C#N)cc(-c3cn(C)c4cnc(NC(N)=O)cc34)n2)CCOC1` [Example 12.3, (R)-1-(3-(4-cyano-6-(3-methoxytetrahydrofuran-3-yl)pyridin-2-yl)-1-methyl-1H-pyrrolo[2,3-c]pyridin-5-yl)urea], the “Tyk2 selectivity over Jak1” value at Jak1 is 138-fold. The “Tyk2 selectivity over Jak2” value at Jak2 is >266-fold.

Take `COc1cc(-c2cn(C)c3cnc(NC(N)=O)cc23)nc([C@]2(OC)CCOC2)c1` [Example 12.6, (R)-1-(3-(4-methoxy-6-(3-methoxytetrahydrofuran-3-yl)pyridin-2-yl)-1-methyl-1H-pyrrolo[2,3-c]pyridin-5-yl)urea]: the “Tyk2 selectivity over Jak1” value on Jak1 is on record as 385-fold. For the same compound, the “Tyk2 selectivity over Jak2” value on Jak2 is reported as >641-fold.
